Results as given in patent US8404727B2, “Pharmaceutical composition that includes a dipeptidyl peptidase-IV inhibitor” (Glenmark Pharmaceuticals S.A., priority 2009, dated 2013).
Counter-ions that a name gives are not always drawn.

Tests used:
[1] = Compatibility study of melogliptin mesylate with various excipients: related substances (RS) by HPLC; type: physicochemical; conditions: sealed glass vial
Source text: Melogliptin Mesylate was Subjected for Compatibility Studies in Solid State Condition with Dry Mixing Technique Using the Following Protocol:
Melogliptin mesylate and various excipients in predetermined w/w ratios were mixed geometrically. Melogliptin mesylate to excipients ratios were selected based on the excipients concentration expected to be used during the development of the formulation. The placebo of each excipient used was kept on respective stability conditions as control.
The samples were stored in glass vials. The vials were closed with rubber stoppers and sealed with aluminum seals, and kept in upright position.
The vials were stored at three storage conditions: 25° C., 30° C. and 40° C.
The samples were analyzed initially, then followed by the end of 1 week, 2 weeks and 4 weeks time periods for related substances (RS), as monitored by HPLC and differential scanning calorimetry (DSC), to study the interaction between melogliptin and various excipients.
The compatibility data in terms of RS generated initially and upon 4 weeks (“4 W”) storage at about 40° C. of various samples are tabulated below.
Brief Analytical Method for Determination of RS in Melogliptin Mesylate:
A reversed-phase gradient HPLC method was developed. The analysis was performed using C18 HPLC column (Phenomenex Gemini 110 A, C-18, 50×4.6 mm, 3 μm). The mobile phase was a gradient mixture of a solution of 1.26 g of ammonium formate in 1000 ml of purified water adjusted to pH 8.4 using 25% v/v ammonia solution (Mobile Phase A) and a solution of 1.26 g of ammonium formate in a mixture of purified water (800 ml) and acetonitrile (200 ml) adjusted to pH 8.4 using 25% v/v ammonia solution (Mobile Phase B). The gradient program is provided below. The flow rate was 1.0 ml/min; injection volume 20 μl; and column temperature was 25° C. Suitable dilutions of the placebo, standard and test samples were injected in the column. Areas for impurity A (eluted at the relative retention time of 0.51) and total RS in the chromatogram were integrated, and accordingly the contents of impurity A and total RS were determined.

[2] = 4 weeks storage at about 40° C.
[3] = dry mix of melogliptin mesylate with excipient, initial

SMILES	melting point	RS by HPLC, Impurity A, 4 W [1, 2]	RS by HPLC, Total RS, 4 W [1, 2]	RS by HPLC, Impurity A, Initial [1, 3]	RS by HPLC, Total RS, Initial [1, 3]
N=C1[C@@H]2C[C@H](F)CN2C(=O)CN1[C@@H]1CC[C@H](Cn2cncn2)C1 (stereo in doubt) (as salt: mesylate) [impurity A, 7-fluoro-1-imino-2-[3-(1H-1,2,4-triazol-1-ylmethyl)cyclopentyl] hexahydropyrrolo[1,2-a]pyrazin-4(1H)-one mesylate]	150 to 160 °C	–	–	–	–
N=C1[C@@H]2C[C@H](F)CN2C(=O)CN1[C@@H]1CC[C@H](Cn2cncn2)C1 (stereo in doubt) [Example 11, 7-fluoro-1-imino-2-[3-(1H-1,2,4-triazol-1-ylmethyl)cyclopentyl] hexahydropyrrolo[1,2-a]pyrazin-4(1H)-one]	158 to 162 °C	–	–	–	–
N#C[C@@H]1C[C@H](F)CN1C(=O)CN[C@@H]1CC[C@H](Cn2cncn2)C1 [Melogliptin mesylate, (2S,4S)-1-{2-[(3S,1R)-3-(1H-1,2,4-triazol-1-ylmethyl)cyclopentylamino]acetyl}-4-fluoropyrrolidine-2-carbonitrile]	–	0.05 % w/w	0.13 % w/w	0.02 % w/w	0.12 % w/w
